ChEMBL document CHEMBL1201862, “PubChem BioAssay data set” (2004)
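Assay format: 96-well plates, 48-hour exposure. Here, GI50 denotes the concentration required for 50% inhibition of growth.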 Active and inactive are the calls of the source. Cut-off read from the data, not from the text of the source: active = GI50 up to about 1.1 µM and inactive = higher.

Assays:
Assay in all cases: inhibition of tumour cell growth, NCI panel, 48 h
[1] = system: ACHN
[2] = system: NCI/ADR-RES
[3] = system: COLO 205
[4] = system: BT-549
[5] = system: OVCAR-5
[6] = system: SK-MEL-2
[7] = system: EKVX
[8] = system: TK-10
[9] = system: SNB-19
[10] = system: RPMI-8226
[11] = system: UO-31
[12] = system: MDA-N
[13] = system: OVCAR-3
[14] = system: MDA-MB-231
[15] = system: IGROV-1
[16] = system: KM12
[17] = system: NCI-H23
[18] = system: M14
[19] = system: UACC-62
[20] = system: DU-145

Structure (SMILES)	GI50 [1]	GI50 [2]	GI50 [3]	GI50 [4]	GI50 [5]	GI50 [6]	GI50 [7]	GI50 [8]	GI50 [9]	GI50 [10]	GI50 [11]	GI50 [12]	GI50 [13]	GI50 [14]	GI50 [15]	GI50 [16]	GI50 [17]	GI50 [18]	GI50 [19]	GI50 [20]
CCCCC(=O)Nc1ccc2cc(C(=O)OC)c(ON3C(=O)c4ccccc4C3=O)nc2n1	28.1 µM (inactive)	32.6 µM (inactive)	64.4 µM (inactive)	38.3 µM (inactive)	23 µM (inactive)	37.5 µM (inactive)	33.1 µM (inactive)	14.6 µM (inactive)	27.9 µM (inactive)	89.9 µM (inactive)	18.2 µM (inactive)	22.3 µM (inactive)	37.1 µM (inactive)	38.9 µM (inactive)	16.3 µM (inactive)	30.3 µM (inactive)	44.1 µM (inactive)	17.9 µM (inactive)	–	–
Cc1cc(Cl)ccc1NC(=O)/C(Cc1nc2ccc(C(=O)c3ccccc3)cc2nc1O)=N/NC(=O)c1ccncc1	> 100 µM (inactive)	> 100 µM (inactive)	–	> 100 µM (inactive)	> 100 µM (inactive)	> 100 µM (inactive)	> 100 µM (inactive)	> 100 µM (inactive)	> 100 µM (inactive)	> 100 µM (inactive)	53.8 µM (inactive)	97.3 µM (inactive)	> 100 µM (inactive)	> 100 µM (inactive)	> 100 µM (inactive)	39.1 µM (inactive)	> 100 µM (inactive)	> 100 µM (inactive)	97.3 µM (inactive)	–
C=C1C[C@H]2C=Nc3cc(OCCCOc4cc5c(cc4OC)C(=O)N4CC(=C)C[C@H]4C=N5)c(OC)cc3C(=O)N2C1 [SJG-136]	< 0.01 µM (active)	–	< 0.01 µM (active)	0.0111 µM (active)	–	–	–	0.0316 µM (active)	< 0.01 µM (active)	0.0121 µM (active)	0.0208 µM (active)	0.0143 µM (active)	0.0172 µM (active)	< 0.0108 µM (active)	< 0.01 µM (active)	0.0124 µM (active)	0.00166 µM (active)	–	< 0.01 µM (active)	–
O=C1CC(=O)c2c(N3CCCC3)sc(N3CCCC3)c21	> 100 µM (inactive)	> 100 µM (inactive)	> 100 µM (inactive)	> 100 µM (inactive)	> 100 µM (inactive)	> 100 µM (inactive)	> 100 µM (inactive)	> 100 µM (inactive)	> 100 µM (inactive)	> 100 µM (inactive)	> 100 µM (inactive)	> 100 µM (inactive)	> 100 µM (inactive)	–	> 100 µM (inactive)	> 100 µM (inactive)	> 100 µM (inactive)	> 100 µM (inactive)	> 100 µM (inactive)	> 100 µM (inactive)
CC(=O)c1cccc(NC(=O)/C(=N\NC(=S)NN)C2C(=O)Nc3ccccc3[S+]2[O-])c1 (stereo unspecified)	> 100 µM (inactive)	> 100 µM (inactive)	–	> 100 µM (inactive)	> 100 µM (inactive)	> 100 µM (inactive)	39.1 µM (inactive)	> 100 µM (inactive)	> 100 µM (inactive)	> 100 µM (inactive)	> 100 µM (inactive)	> 100 µM (inactive)	> 100 µM (inactive)	> 100 µM (inactive)	> 100 µM (inactive)	> 100 µM (inactive)	> 100 µM (inactive)	> 100 µM (inactive)	> 100 µM (inactive)	–
CCCCCCC(=O)OC[n+]1ccc(-c2c(COC(=O)NC(C)C)c(COC(=O)NC(C)C)c3n2CCC3)cc1	41 µM (inactive)	> 100 µM (inactive)	> 80.9 µM (inactive)	> 91 µM (inactive)	> 100 µM (inactive)	> 100 µM (inactive)	> 100 µM (inactive)	> 100 µM (inactive)	> 100 µM (inactive)	38.5 µM (inactive)	> 100 µM (inactive)	–	> 100 µM (inactive)	> 71.3 µM (inactive)	> 100 µM (inactive)	> 100 µM (inactive)	48.9 µM (inactive)	> 87.9 µM (inactive)	37.1 µM (inactive)	> 82.4 µM (inactive)
